Experimental data reported in article PMC11079024, “Identification of a family of species-selective complex I inhibitors as potential anthelmintics” (Nature Communications, 2024).
pIC50: −log10 of the molar value. Read-outs that look alike come from different tables or passages of the source.

Experiments:
in vitro = settings: human; for viability at 2 days, 3.13 µM / viability at 2 days, 6.25 µM / viability at 2 days, 12.5 µM / viability at 2 days, 25 µM / viability at 2 days, 50 µM / viability at 2 days, 100 µM: HEK293 cells (Flp-In-293)
[1] = tested on: ben-1 mutant (ECA882) C. elegans; assay: microbe, parasite or virus in culture; settings: Caenorhabditis elegans; for viability at 1 µM / viability at 2 µM / viability at 3.9 µM / viability at 15.6 µM / viability at 31.3 µM / viability at 62.5 µM / viability at 125 µM / viability at 250 µM / viability at 500 µM / viability at 1000 µM: read-out: C. elegans ben-1(e1880) development/viability
Procedure, shortened: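 Development and viability scored from single well images as total worm pixels divided by the matching DMSO control value, mean of ≥3 replicates. Worms added as synchronized L1s to HB101 suspension in liquid NGM with compound (1% DMSO v/v), grown 6 days at 20 °C with shaking.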

[2] = molecular target: B. taurus (heart) complex I (Bos taurus, UniProt P03887+P17694+P42026); assay: biochemical; assay type: biochemical; settings: for pIC50: B. taurus heart mitochondria, read-out: B. taurus Complex I IC50; for activity at 0.0001 µM / activity at 0.0005 µM / activity at 0.001 µM / activity at 0.0025 µM / activity at 0.005 µM / activity at 0.013 µM / activity at 0.025 µM / activity at 0.063 µM / activity at 0.125 µM / activity at 0.313 µM / activity at 0.625 µM / activity at 1.5 µM / activity at 3 µM / activity at 15 µM / activity at 37.5 µM / activity at 75 µM: read-out: B. taurus mitochondrial complex I activity; for Log IC50 B. taurus complex I: log10 of IC50 in µM, B. taurus mitochondria
Chain of B. taurus (heart) complex I (P03887 whole entry): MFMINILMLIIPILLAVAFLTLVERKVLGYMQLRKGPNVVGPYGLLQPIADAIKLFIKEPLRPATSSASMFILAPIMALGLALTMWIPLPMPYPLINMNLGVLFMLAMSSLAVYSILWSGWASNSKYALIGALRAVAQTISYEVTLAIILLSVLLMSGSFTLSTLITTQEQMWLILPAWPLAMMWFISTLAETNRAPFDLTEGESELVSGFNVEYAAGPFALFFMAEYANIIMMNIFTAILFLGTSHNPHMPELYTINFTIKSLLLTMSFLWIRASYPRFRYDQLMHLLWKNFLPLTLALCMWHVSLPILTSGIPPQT
Chain of B. taurus (heart) complex I (P17694 34-463): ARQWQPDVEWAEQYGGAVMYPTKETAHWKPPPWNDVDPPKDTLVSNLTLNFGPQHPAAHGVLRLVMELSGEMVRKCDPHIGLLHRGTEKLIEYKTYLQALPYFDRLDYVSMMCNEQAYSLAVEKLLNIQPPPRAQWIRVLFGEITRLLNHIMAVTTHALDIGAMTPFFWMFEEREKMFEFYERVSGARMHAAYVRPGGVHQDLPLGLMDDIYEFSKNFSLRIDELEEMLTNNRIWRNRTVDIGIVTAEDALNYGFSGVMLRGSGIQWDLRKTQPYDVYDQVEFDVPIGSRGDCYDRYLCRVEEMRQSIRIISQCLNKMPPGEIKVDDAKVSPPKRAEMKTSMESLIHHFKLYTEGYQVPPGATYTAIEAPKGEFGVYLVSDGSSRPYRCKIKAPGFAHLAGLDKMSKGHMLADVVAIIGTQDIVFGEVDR
Chain of B. taurus (heart) complex I (P42026 38-216): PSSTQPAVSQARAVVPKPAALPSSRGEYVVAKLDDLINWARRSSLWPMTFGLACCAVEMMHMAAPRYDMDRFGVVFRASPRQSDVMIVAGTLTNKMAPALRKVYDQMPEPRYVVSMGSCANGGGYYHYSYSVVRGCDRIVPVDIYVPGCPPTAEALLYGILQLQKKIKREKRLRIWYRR
Procedure, shortened: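 Complex I activity followed as DCIP reduction (600 nm, 30 s reads, 15 min) with 80 μM NADH and 60 μM decylubiquinone in 25 mM KPi pH 7.5 containing 2 μM antimycin A and 2 mM KCN. Freeze-thawed mouse or bovine heart mitochondria at 0.2 mg/mL; initial-rate percent of solvent control, single-point 100 μM or dose-response.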

[3] = HEK293 Cell Viability Assay LC50, HEK293 cells, estimated from fitted dose-response curves, mean of at least two biological replicates
[4] = read-out: C. elegans (ben-1) Development & Viability Assay LC50
[5] = read-out: C. elegans ben-1 log10 LC50 (converted)
[6] = estimated from fitted dose-response curves

Structure (SMILES) | viability at 2 days, 6.25 µM (in vitro; HEK293 viability) [%] | viability at 2 days, 12.5 µM (in vitro; HEK293 viability) [%] | viability at 2 days, 25 µM (in vitro; HEK293 viability) [%] | viability at 2 days, 50 µM (in vitro; HEK293 viability) [%] | viability at 2 days, 100 µM (in vitro; HEK293 viability) [%] | LC50 [1, 4] [µM] | LC50 [1, 5] [µM] | pIC50 [2, 6] | activity at 0.0001 µM [2] [%] | activity at 0.0005 µM [2] [%] | activity at 0.001 µM [2] [%] | activity at 0.0025 µM [2] [%] | activity at 0.005 µM [2] [%] | activity at 0.013 µM [2] [%] | activity at 0.025 µM [2] [%] | activity at 0.063 µM [2] [%] | activity at 0.125 µM [2] [%] | activity at 0.313 µM [2] [%] | activity at 0.625 µM [2] [%] | Log IC50 B. taurus complex I [2] [µM] | also measured
Clc1ccccc1OCCCCn1cnc2ccccc21 [Compound 7925804] | 99.5 | 97.9 | 73.8 | 40.2 | 8 | 49.2 | 49.2 | 5.87 | 106 | 116 | 117 | 118 | 118 | 117 | 116 | 111 | 99.3 | 90.5 | 75.5 | 0.13 | CC50 at 2 days (in vitro; [3]): 40.2 µM; viability at 2 days, 3.13 µM (in vitro; HEK293 viability, Dose 3.13 µM): 100%; viability at 1 µM [1]: 91.8%; viability at 2 µM [1]: 87.2%; viability at 3.9 µM [1]: 83.7%; viability at 15.6 µM [1]: 79%; viability at 31.3 µM [1]: 79.6%; viability at 62.5 µM [1]: 18.3%; viability at 125 µM [1]: 6.8%; viability at 250 µM [1]: 4.1%; viability at 500 µM [1]: 3.2%; viability at 1000 µM [1]: 3.8%; activity at 1.5 µM [2]: 54.8%; activity at 3 µM [2]: 39.2%; activity at 15 µM [2]: 9.9%; activity at 37.5 µM [2]: 3.53%; activity at 75 µM [2]: 2.37%
Cc1ccc(SCCCn2cnc3ccccc32)cc1 [Compound 7926035] | 96.6 | 98.4 | 97.6 | 65.6 | 30.4 | 69.8 | 69.8 | 5.44 | 101 | 105 | 99.3 | 106 | 102 | 101 | 100 | 98.8 | 97 | 98.3 | 78.8 | 0.56 | CC50 at 2 days (in vitro; [3]): 71.4 µM; viability at 2 days, 3.13 µM (in vitro; HEK293 viability, Dose 3.13 µM): 90.8%; viability at 1 µM [1]: 94.4%; viability at 2 µM [1]: 87.2%; viability at 3.9 µM [1]: 86.3%; viability at 15.6 µM [1]: 91.5%; viability at 31.3 µM [1]: 76.7%; viability at 62.5 µM [1]: 57.7%; viability at 125 µM [1]: 5.4%; viability at 250 µM [1]: 2.6%; viability at 500 µM [1]: 3.4%; viability at 1000 µM [1]: 5.6%; activity at 1.5 µM [2]: 78.8%; activity at 3 µM [2]: 41.2%; activity at 15 µM [2]: 10%; activity at 37.5 µM [2]: 2.81%; activity at 75 µM [2]: 1.94%
Clc1ccc(Cn2cnc3ccccc32)c(Cl)c1 [Compound 6750659] | 100 | 100 | 100 | 76 | 19.4 | 42.2 | 42.3 | 5.59 | 93.1 | 93.8 | 91.7 | 100 | 91.7 | 94.7 | 92.7 | 89.8 | 83.5 | 77.1 | 78.3 | 0.41 | CC50 at 2 days (in vitro; [3]): 72.7 µM; viability at 2 days, 3.13 µM (in vitro; HEK293 viability, Dose 3.13 µM): 95.5%; activity at 1.5 µM [2]: 60.6%; activity at 3 µM [2]: 42.8%; activity at 15 µM [2]: 8.04%; activity at 37.5 µM [2]: 1.6%; activity at 75 µM [2]: 1.94%
Cc1ccc(OCCn2cnc3ccccc32)cc1 [Compound 5671538] | 98.5 | 97.1 | 96.2 | 96.4 | 61.4 | > 1000 | > 500 | – | 94.3 | 97.5 | 95.2 | 100 | 98.6 | 95.8 | 97.5 | 95 | 89.3 | 91.3 | 85.9 | 1.24 | CC50 at 2 days (in vitro; HEK293 Cell Viability Assay LC50, HEK293 cells, estimated from fitted dose-response curves): > 100 µM; viability at 2 days, 3.13 µM (in vitro; HEK293 viability, Dose 3.13 µM): 92.2%; viability at 15.6 µM [1]: 100%; viability at 31.3 µM [1]: 100%; viability at 62.5 µM [1]: 100%; viability at 125 µM [1]: 100%; viability at 250 µM [1]: 100%; viability at 500 µM [1]: 100%; viability at 1000 µM [1]: 100%; LC50 ([1]; read-out: C. elegans ben-1 LC50): > 500 µM; pIC50 [2]: 4.76; activity at 1.5 µM [2]: 84.9%; activity at 3 µM [2]: 86.7%; activity at 15 µM [2]: 57.1%; activity at 37.5 µM [2]: 33.8%; activity at 75 µM [2]: 14.5%
Cc1ccc(SCCCCn2cnc3ccccc32)cc1 [Compound 7925333] | 97 | 99.2 | 100 | 77.2 | 25.7 | 227 | 227 | 5.14 | 90.9 | 87.2 | 87.5 | 83.2 | 83.9 | 89.8 | 94.2 | 97.7 | 99.3 | 99.3 | 90.8 | 0.86 | CC50 at 2 days (in vitro; [3]): 75.1 µM; viability at 2 days, 3.13 µM (in vitro; HEK293 viability, Dose 3.13 µM): 88.6%; viability at 1 µM [1]: 92%; viability at 2 µM [1]: 100%; viability at 3.9 µM [1]: 98%; viability at 15.6 µM [1]: 90.4%; viability at 31.3 µM [1]: 93.2%; viability at 62.5 µM [1]: 77.8%; viability at 125 µM [1]: 80.7%; viability at 250 µM [1]: 53.9%; viability at 500 µM [1]: 3.6%; viability at 1000 µM [1]: 1%; activity at 1.5 µM [2]: 78.5%; activity at 3 µM [2]: 70%; activity at 15 µM [2]: 25.1%; activity at 37.5 µM [2]: 9.48%; activity at 75 µM [2]: 1.13%
c1ccc(CCCCCCCCCCc2nc3ccccc3[nH]2)cc1 [STL442376] | – | – | – | – | – | 640 | 640 | 5.48 | – | – | – | – | – | – | – | – | – | – | – | 0.52 | CC50 at 2 days (in vitro; [3]): < 6.25 µM
Cc1nc2ccccc2n1Cc1ccccc1Cl [Compound 6707368] | – | – | – | – | – | 135 | 135 | 5.40 | – | – | – | – | – | – | – | – | – | – | – | 0.60 | CC50 at 2 days (in vitro): > 100 µM
CC(C)Oc1cccc(OCCn2cnc3ccccc32)c1 [Compound 7926496] | 97.4 | 96.9 | 97.3 | 85.9 | 43.4 | 388 | 388 | – | 89.9 | 91.2 | 91.7 | 85.5 | 94.5 | 90.6 | 91.4 | 86 | 80.2 | 76.3 | 69.4 | 0.34 | CC50 at 2 days (in vitro): 94.5 µM; viability (in vitro; HEK293 viability, Dose 3.13 µM): 91.5%; viability at 1 µM [1]: 86.1%; viability at 2 µM [1]: 87.5%; viability at 3.9 µM [1]: 87.4%; viability at 15.6 µM [1]: 90.6%; viability at 31.3 µM [1]: 95.8%; viability at 62.5 µM [1]: 91.5%; viability at 125 µM [1]: 81%; viability at 250 µM [1]: 86.3%; viability at 500 µM [1]: 13.9%; viability at 1000 µM [1]: 3.6%; pIC50 [2]: 5.66; activity at 1.5 µM [2]: 53.2%; activity at 3 µM [2]: 36%; activity at 15 µM [2]: 9.56%; activity at 37.5 µM [2]: 1.81%; activity at 75 µM [2]: 1.89%
